Patent publication US8063072B2 (Roche Palo Alto LLC, priority 2009, dated 2011)

How the values were obtained:
[1] = target: T1, HCV polymerase (NS5B570n-Con1) (Hepatitis C virus genotype 1b, UniProt Q9WMX2); assay: HCV NS5B RNA polymerase activity; format: biochemical, HCV Con1 strain
T1 construct: contains a 21 amino acid deletion at the C-terminus relative to the full-length HCV polymerase; 6-histidine (His6) (N); made in house; host or cells: E. coli BL21(DE) pLysS, plasmid pET17b
Experimental: The enzymatic activity of HCV polymerase (NS5B570n-Con1) was measured as the incorporation of radiolabeled nucleotide monophosphates into acid insoluble RNA products. Unincorporated radiolabeled substrate was removed by filtration and scintillant was added to the washed and dried filter plate containing radiolabeled RNA product. The amount of RNA product generated by NS5B570-Con1 at the end of the reaction was directly proportional to the amount of light emitted by the scintillant.
The N-terminal 6-histidine tagged HCV polymerase, derived from HCV Con1 strain, genotype 1b (NS5B570n-Con1) contains a 21 amino acid deletion at the C-terminus relative to the full-length HCV polymerase and was purified from E. coli strain BL21(DE) pLysS. The construct, containing the coding sequence of HCV NS5B Con1 (GenBank accession number AJ242654) was inserted into the plasmid construct pET17b, downstream of a T7 promoter expression cassette and transformed into E. coli. A single colony was grown overnight as a starter culture and later used inoculate 10 L of LB media supplemented with 100 μg/mL ampicillin at 37° C. Protein expression was induced by the addition of 0.25 mM isopropyl-β-D-thiogalactopyranoside (IPTG) when optical density at […] of the culture was between 0.6 and 0.8 and cells were harvested after 16 to 18 h at 30° C. NS5B570n-Con1 was purified to homogeneity using a three-step protocol including subsequent column chromatography on Ni-NTA, SP-Sepharose HP and Superdex 75 resins.
Each 50 μL enzymatic reaction contained 20 nM RNA template derived from the complementary sequence of the Internal Ribosome Entry Site (cIRES), 20 nM NS5B570n-Con1 enzyme, 0.5 μCi of tritiated UTP (Perkin Elmer catalog no. TRK-412; specific activity: 30 to 60 Ci/mmol; stock solution concentration from 7.5×10^-5 M to 20.6×10^-6 M), 1 μM each ATP, CTP, and GTP, 40 mM Tris-HCl pH 8.0, 40 mM NaCl, 4 mM DTT (dithiothreitol), 4 mM MgCl2, and 5 μl of compound serial diluted in DMSO. Reaction mixtures were assembled in 96-well filter plates (cat #MADVNOB, Millipore Co.) and incubated for 2 h at 30° C. Reactions were stopped by addition of 10% final (v/v) trichloroacetic acid and incubated for 40 min at 4° C. Reactions were filtered, washed with 8 reaction volumes of 10% (v/v) trichloroacetic acetic acid, 4 reaction volumes of 70% (v/v) ethanol, air dried, and 25 μl of scintillant (Microscint 20, Perkin-Elmer) was added to each reaction well.
The amount of light emitted from the scintillant was converted to counts per minute (CPM) on a Topcount® plate reader (Perkin-Elmer, Energy Range: Low, Efficiency Mode: Normal, Count Time: 1 min, Background Subtract: none, Cross talk reduction: Off).
Data was analyzed in Excel® (Microsoft) and ActivityBase® (Idbs®). The reaction in the absence of enzyme was used to determine the background signal, which was subtracted from the enzymatic reactions. Positive control reactions were performed in the absence of compound, from which the background corrected activity was set as 100% polymerase activity. All data was expressed as a percentage of the positive control. The compound concentration at which the enzyme-catalyzed rate of RNA synthesis was reduced by 50% (IC50) was calculated by fitting equation (i) to the data where“Y”
[formula] corresponds to the relative enzyme activity (in %), “% Min” is the residual relative activity at saturating compound concentration, “% Max” is the relative maximum enzymatic activity, “X” corresponds to the compound concentration, and “S” is the Hill coefficient (or slope).

[2] = tested on: HCV; settings: cited from earlier work
[3] = in vitro; settings: human
[4] = tested on: genotype 1b replicon in HCV replicon cells (2209-23); assay: HCV replicon assay (Renilla luciferase reporter); format: cell-based, HCV genotype 1b; settings: Hepatitis C virus, 72 h; cell line 2209-23, three days incubation, luciferase readout

SMILES	melting point	IC50 [1]	effect on serum levels of HCV-RNA ([2]; monotherapy / sole treatment)	patients with serum amino transferase levels reduced to normal ([2]; monotherapy)	CC50 [3]	IC50 [4]
CC(C)(C)c1cc(/C=C/c2ccc(NS(C)(=O)=O)cc2)c(O)c(-c2ccc[nH]c2=O)n1 [Compound I-2, N-{4-[(E)-2-(6-tert-Butyl-3-hydroxy-2′-oxo-1′,2′-dihydro-[2,3′]bipyridinyl-4-yl)-vinyl]-phenyl}-methanesulfonamide]	178 to 180 °C	177 nM				
NC(=O)c1ncn([C@@H]2O[C@H](CO)[C@@H](O)[C@H]2O)n1 [ribavirin, 1-((2R,3R,4S,5R)-3,4-Dihydroxy-5-hydroxymethyl-tetrahydro-furan-2-yl)-1H-[1,2,4]triazole-3-carboxylic acid amide]			does not lower serum levels of HCV-RNA	40%		
COC(=O)c1cc(C(C)(C)C)nc(-c2ccc[nH]c2=O)c1C#N [Compound I-4, 6-tert-Butyl-3-cyano-2′-oxo-1′,2′-dihydro-[2,3′]bipyridinyl-4-carboxylic acid methyl ester]	228 to 230 °C	5640 nM				
CC(C)(C)c1cc(/C=C/c2ccc(NS(C)(=O)=O)cc2)cc(-c2ccc[nH]c2=O)n1 [Compound I-1]	258 to 260 °C	4 nM			15100 nM	108 nM
CC(C)(C)c1cc(CCc2ccc(NS(C)(=O)=O)cc2)c(O)c(-c2ccc[nH]c2=O)n1 [Compound I-3, N-{4-[2-(6-tert-Butyl-3-hydroxy-2′-oxo-1′,2′-dihydro-[2,3′]bipyridinyl-4-yl)-ethyl]-phenyl}-methanesulfonamide]	123 to 125 °C	27 nM				566 nM
CC(C)(C)c1cc(CCc2ccc(NS(C)(=O)=O)cc2)c(C#N)c(-c2ccc[nH]c2=O)n1 [Compound I-6, N-{4-[2-(6-tert-Butyl-3-cyano-2′-oxo-1′,2′-dihydro-[2,3′]bipyridinyl-4-yl)-ethyl]-phenyl}-methanesulfonamide]		4 nM				
CC(C)(C)c1cc(C(=O)N[C@H]2CC[C@H](NS(C)(=O)=O)CC2)c(C#N)c(-c2ccc[nH]c2=O)n1 [Compound I-5, 6-tert-Butyl-3-cyano-2′-oxo-1′,2′-dihydro-[2,3′]bipyridinyl-4-carboxylic acid (4-methanesulfonylamino-cyclohexyl)-amide]	208 to 210 °C	42 nM				
CC(C)(C)c1nc(/C=C/c2ccc(NS(C)(=O)=O)cc2)cc(-c2ccc[nH]c2=O)n1 [Compound I-7, N-(4-{(E)-2-[2-tert-Butyl-6-(2-oxo-1,2-dihydro-pyridin-3-yl)-pyrimidin-4-yl]-vinyl}-phenyl)-methanesulfonamide]	271 to 273 °C	10 nM				
